Measurements from US9096630B2, “Amphiphilic compositions and methods for preparing and using same” (Yale University, priority 2009, dated 2015).
Read-outs that look alike come from different tables or passages of the source. Each block holds one compound with its values, some of them ahead of it.

Assays:
[1] = Critical micelle concentration and surface tension measurement (tensiometer, Pt plate); assay type: physicochemical; settings: for CMC / γmin: room temperature; for CMC: DI water; for γmin: DI water (calibrated to 72.7±0.2 mN/m); for behavior in terms of CMC compared with Compound 1 / behavior in terms of interfacial tension (γ) reduction compared with Compound 1: photoisomers of Compound 1
Method: To characterize the behavior of the compounds of this invention as surfactants, surface tension can be plotted as a function of concentration and critical micelle concentrations (CMCs) of these surfactants can be calculated. In addition, the hydrophobic-lipophilic balance (HLB) of a surfactant can be calculated according to Griffin's Method. See e.g., Pasquali, R. C.; Taurozzi, M. P.; Bregni, C. Int. J. Pharm.
The CMC for compounds of the invention is determined using known methods in the art.
See, e.g., Pasquali, R. C.; Taurozzi, M. P.; Bregni, C. Int. J. Pharm. […] 14.

[2] = Ross-Miles foam test (ASTM D1173); assay type: physicochemical; settings: for foam enhancing and stabilizing capability compared with Compound 1: photoisomers of Compound 1
[3] = O-alkylglucoside reference, see Rybinski and Hill 1998; cited from earlier work

CMC [1]: 0.1 mM
γmin [1]: 28 mN/m
Structure (SMILES): CCCCCCCCCCC/C=C/C(=O)C[C@@H]1O[C@H](CO)[C@@H](O)[C@H](O)[C@H]1O [Compound 1, (E)-1-((2S,3R,4R,5S,6R)-3,4,5-trihydroxy-6-(hydroxymethyl)tetrahydro-2H-pyran-2-yl)pentadec-3-en-2-one]

CMC [1]: 52.2 mM
γmin [1]: 30 mN/m
Structure (SMILES): CCCC1CC(=O)C([C@@H]2O[C@H](CO)[C@@H](O)[C@H](O)[C@H]2O)=CC1CC (stereo partly drawn) [Compound 2, 4-ethyl-5-propyl-2-((2S,3R,4R,5S,6R)-3,4,5-trihydroxy-6-(hydroxymethyl)tetrahydro-2H-pyran-2-yl)cyclohex-2-enone]

Structure (SMILES): CCCCCC1CC(=O)C([C@@H]2O[C@H](CO)[C@@H](O)[C@H](O)[C@H]2O)=CC1CCCC (stereo partly drawn) [Compound 3, 4-butyl-5-pentyl-2-((2S,3R,4R,5S,6R)-3,4,5-trihydroxy-6-(hydroxymethyl)tetrahydro-2H-pyran-2-yl)cyclohex-2-enone]
foaming properties when combined with SDS ([2]; combined with SDS as a 20% solution, compared with SDS alone): exceeded that of SDS alone
foam height over 5 minutes when combined with SDS ([2]; combined with SDS as a 20% solution, over 5 minutes): remained unchanged
excess foam after 5 minutes ([2]; surfactant alone, after 5 minutes, FIG. 2): virtually no excess foam
reduction in Interfacial Tension (IFT) ([1]; comparison of CMC curves between series, FIG. 1): greatest reduction in Interfacial Tension (IFT)
estimated CMC ([1]; estimated from point of inflection of CMC curve, FIG. 1): very low
CMC [1]: 0.17 mM
γmin [1]: 22 mN/m

CMC [1]: 3.9 mM
γmin [1]: 24 mN/m
Structure (SMILES): CCCCC/C=C/C(=O)C[C@@H]1O[C@H](CO)[C@@H](O)[C@H](O)[C@H]1O [Compound 46, (E)-1-((2S,3R,4R,5S,6R)-3,4,5-trihydroxy-6-(hydroxy-methyl)tetrahydro-2H-pyran-2-yl)non-3-en-2-one]

foam enhancing and stabilizing capability compared with Compound 1 [2]: substanitally the same behavior
behavior in terms of CMC compared with Compound 1 [1]: substanitally the same behavior
behavior in terms of interfacial tension (γ) reduction compared with Compound 1 [1]: substanitally the same behavior
Structure (SMILES): CCCCCCCCCC/C=C/CC(=O)C[C@@H]1OC(CO)[C@@H](O)[C@H](O)C1O (some centres unmarked) [Compound 47]

foam enhancing and stabilizing capability compared with Compound 1 [2]: substanitally the same behavior
behavior in terms of CMC compared with Compound 1 [1]: substanitally the same behavior
behavior in terms of interfacial tension (γ) reduction compared with Compound 1 [1]: substanitally the same behavior
Structure (SMILES): CCCCCCCCCC/C=C\CC(=O)C[C@@H]1OC(CO)[C@@H](O)[C@H](O)C1O (some centres unmarked) [Compound 48]

Structure (SMILES): CCCCCCCCCCCCO[C@@H]1O[C@H](CO)[C@@H](O)[C@H](O)[C@H]1O [Dodecyl-AG]
CMC [3]: 0.17 mM
γmin [3]: 24 mN/m

Structure (SMILES): CCCCCCCCO[C@@H]1O[C@H](CO)[C@@H](O)[C@H](O)[C@H]1O [Octyl-AG]
CMC [3]: 18.0 mM
γmin [3]: 24 mN/m
